This is an account of results in patent publication US8906678B2, “Use of markers of undifferentiated pluripotent stem cell” (Agency for Science, Technology and Research, priority 2010, dated 2014).

Read-outs that look alike come from different tables or passages of the source. Bridge positions count the residues as written; N and C are the ends. Square brackets hold non-standard residues; d marks the D form. Peptide text beside a SMILES is read from it.

Holding throughout (format): cell-based, human
In one data set the test system is HES-3 cells. The settings on record: for killing efficiency on hESC, D-form vs L-form: 100 μm, after 120 hr; for relative viability: 100 μM. As to the method:
Viability was determined using Propidium Iodide (PI) assay, where cells were trypsinized and resuspended in binding buffer (10 mM HEPES/NaOH, 140 mM NaCl and 2.5 mM CaCl2) containing 1.25 mg/ml of PI. The cells were incubated at room temperature for 15 min before analyzing on the flow cytometer.

For another data set, the system named is ESIMR90. As to the method:
Induced pluripotent stem cell line, ESIMR90, derived from lung fibroblasts, was obtained from James Thomson (18). ESIMR90 was cultured as per hESC cultures, with the exception of supplementing cultures with 100 ng/ml of FGF-2. For FGF-2 starved cultures, cells were maintained without FGF-2 as mentioned above. Viability was determined using Propidium Iodide (PI) assay, where cells were trypsinized and resuspended in binding buffer (10 mM HEPES/NaOH, 140 mM NaCl and 2.5 mM CaCl2) containing 1.25 mg/ml of PI. The cells were incubated at room temperature for 15 min before analyzing on the flow cytometer.

The next data set concerns HES-3. Nature of the data set: Growth curve of HES-3 cultures (viable cell number vs time). How it is done: Human embryonic stem cell line, HES-3, was obtained from ES Cell International (ESI, Singapore, http://escellinternational.com). The cells were cultured at 37° C., 5% CO2, on matrigel-coated culture dishes supplemented with conditioned media from immortalized mouse embryonic fibroblast, ΔE-MEF. The media used for culturing hESC was Knockout (KO) media containing 85% KO-DMEM (DMEM, Dulbecco's modified Eagle's medium) supplemented with 15% KO serum replacer, 1 mM L-glutamine, 1% non-essential amino acids, 0.1 mM 2-mercaptoethanol, and 10 ng/ml basic fibroblast growth factor (FGF-2; Invitrogen, Carlsbad, Calif., http://www.invitrogen.com). The cells were treated with collagenase IV (200 U/ml) or TrypLE Express solution (Invitrogen) and dissociated into small clumps or single cells respectively by repeated pipetting. The cells were then reseeded onto matrigel-coated plates at a passage ratio 1:4.
(§1) HES-3 and IMR-90 cells were cultured in 24 wells culture dishes supplemented with either 100 μM PHB-targeting pro-apoptotic peptide (CKGGRAKDC-GG-D(KLAKLAK)2 (SEQ ID NO:3)>90% purity; Sigma Aldrich) or 0.2% DMSO as control. Cultures were induced every 48 h and harvested daily for cell count. Cell numbers were determined using NucleoCounter according to the manufacturer's recommendations (Chemometec, Denmark, http://http://www.chemometec.com). The growth curves were generated by plotting viable cell number vs time. Specific growth rate, μ, was calculated as the gradient of the exponential phase, determined by plotting ln(cell number) vs time. Triplicates were done for each set of data.

The test system of a further data set is ESIMR90 cells. Nature of the data set: Detection of caspase-3 activity / annexin V, ESIMR90. Particulars: 100 μM peptide, 24 hours. How it is done: (§2) To detect caspase-3 activity in treated hESC, cells grown in 24 wells were incubated with 5 μM of NucView 488 Caspase-3 substrate (Biotium Inc, www.biotium.com) and sulforhodamine 101-annexin V (1.25 ug/ml; Biotium Inc) at room temperature for 30 min. Cells were then washed once with PBS and examined under the Olympus IX70 fluorescence microscope (Olympus, http://www.olvmousamerica.com). For flow cytometry analysis, hESC was trypinsized before resuspending cells in PBS containing caspase-3 substrate and annexin V reagents.

Data set [1] relates to hESC. Nature of the data set: TUNEL assay (nuclear DNA fragmentation). The settings on record: after 48 hours. As to the method:
Nuclear DNA fragmentation was measured via a TUNEL (Terminal deoxynucleotidyl transferase dUTP nick end labeling) assay kit (Promega, Madison, Wis., http://www.promega.com). Cells were harvested from each condition and fixed in 1% paraformaldehyde for 20 min on ice before permeabilizing them with ice-cold 70% ethanol at […] overnight. Subsequently, the cells were washed with PBS and incubated in 80 μl of equilibration buffer for 5 min at room temperature. The cells were pelleted down and resuspended in 50 μl of incubation buffer containing nucleotides and rTdT enzyme, followed by incubation at 37° C. for 1 h. The reaction was quenched using 20 mM EDTA and cells were resuspended in 0.1% Triton/0.5% BSA/PBS before analyzing on the flow cytometer. The green fluorescence of fluorescein-12-dUTP was detected in the FL1 channel.

The subject of the next data set is IMR-90 cells. Kind of data set: Growth curve of IMR-90 cells (specificity control). How it is done:
Human fetal lung fibroblast cell line, IMR-90 (CCL-186), was purchased from American Type Culture Collection and cultured according to the supplier's instructions.
as §1

In data set [2] the test system is hESC. Kind of data set: Detection of caspase-3 activity / annexin V, hESC. Particulars: 100 μM peptide, 24 hours. How it is done: as §2
In data set [3] the test system is PHB surface expression in HES-3. Kind of data set: SU5402 effect on PHB surface expression, flow cytometry, HES-3. Particulars: 20 μM or 30 μM SU5402 for 7 days. How it is done: Cells were harvested as single cell suspensions using trypsin, resuspended at 2×10^5 cells per 10 μl volume in 1% bovine serum albumin (BSA)/PBS and incubated for 45 min with each mAb clone (100 ul culture supernatant) or monoclonal TRA-1-60 antibody. (12.5 ug/ml; Chemicon, Temecula, Calif. http://www.chemicon.com). Cells were then washed with cold 1% BSA/PBS, and further incubated for 15 min with 1:500 dilution of fluorescein isothiocyanate (FITC)-conjugated goat α-mouse antibody (DAKO, Glostrup, Denmark, http://www.dako.com). After incubation, the cells were again washed and resuspended in 1% BSA/PBS for analysis on a FACScan (Becton, Dickinson and Company, Franklin Lakes, N.J., http://www.bd.com).
To observe the effect of SU5402 on expression of PHB in hESC, cells were seeded and allowed to adhere for 24 h before culturing them in the presence of SU5402 at concentrations of 20 μM or 30 μM for 7 days. Control cells were cultured similarly in the presence of the vehicle control, DMSO instead. Cells were subsequently harvested for flow cytometry analysis.

The subject of data set [4] is MAPK pathway (ERK phosphorylation) in HES-3 cultures. Kind of data set: SU5402 inhibitor study, ERK phosphorylation by western blot. The settings on record: 20 μM and 30 μM SU5402 for 2 h, then 10 ng/ml FGF-2 for 15 min. How it is done: hESC cultured under various conditions were lysed and clarified via centrifugation before quantifying with the DC protein assay (Biorad, http://www.bio-rad.com). 20 ug of total protein from each condition was resolved and transferred onto membrane as described above. The resolved proteins were then immunoblotted with anti-actin (1:10,000; Abcam, http://www.abcam.com), anti-total ERK (1:1000; Sigma Aldrich) and anti-phospho-ERK (1:5000; Sigma Aldrich) antibodies. The protein bands were visualized using either ECL Plus detection reagent (Amersham, GE Healthcare, UK, http://www.gehealthcare.com) or LI-COR ODYSSY imaging system (LI-COR Biosciences, Nebraska, http://www.licor.com).
Efficacy of SU5402 (Calbiochem, San Diego, USA, http://www.emdbiosciences.com) was determined by culturing hESC in absence of FGF-2 for 5 days, followed by incubating with 20 μM or 30 μM of SU5402 for 2 h before inducing the treated cultures with FGF-2 for 15 min. Cells were then lysed and the lysates were analyzed using western blot analysis.
For orientation: In western blotting, separated proteins are transferred to a membrane and probed.

The mark [5] stands for this setting: 100 μM of peptide, clump cultures.

As for `CC(C)C[C@H](NC(=O)[C@H](CCCCN)NC(=O)CNC(=O)CNC(=O)[C@H](CS)NC(=O)[C@H](CC(=O)O)NC(=O)[C@H](CCCCN)NC(=O)[C@H](C)NC(=O)[C@H](CCCNC(=N)N)NC(=O)CNC(=O)CNC(=O)[C@H](CCCCN)NC(=O)[C@@H](N)CS)C(=O)N[C@@H](C)C(=O)N[C@@H](CCCCN)C(=O)N[C@@H](CC(C)C)C(=O)N[C@@H](C)C(=O)N[C@@H](CCCCN)C(=O)N[C@@H](CCCCN)C(=O)N[C@@H](CC(C)C)C(=O)N[C@@H](C)C(=O)N[C@@H](CCCCN)C(=O)N[C@@H](CC(C)C)C(=O)N[C@@H](C)C(=O)N[C@@H](CCCCN)C(=O)O` [L-form peptide] (H-CKGGRAKDCGGKLAKLAKKLAKLAK-OH; N-terminus and C-terminus assumed), the “killing efficiency on hESC, D-form vs L-form” value in the data set on HES-3 cells is “comparable”. The compound further showed a hESC viability in the data set on HES-3 cells (human, 120 hr) below 5%.
As to `CC(C)C[C@@H](NC(=O)[C@@H](CCCCN)NC(=O)CNC(=O)CNC(=O)[C@@H]1CSSC[C@H](N)C(=O)N[C@@H](CCCCN)C(=O)NCC(=O)NCC(=O)N[C@@H](CCCNC(=N)N)C(=O)N[C@@H](C)C(=O)N[C@@H](CCCCN)C(=O)N[C@@H](CC(=O)O)C(=O)N1)C(=O)N[C@H](C)C(=O)N[C@H](CCCCN)C(=O)N[C@H](CC(C)C)C(=O)N[C@H](C)C(=O)N[C@H](CCCCN)C(=O)N[C@H](CCCCN)C(=O)N[C@H](CC(C)C)C(=O)N[C@H](C)C(=O)N[C@H](CCCCN)C(=O)N[C@H](CC(C)C)C(=O)N[C@H](C)C(=O)N[C@H](CCCCN)C(=O)O` [peptide, CKGGRAKDC-GG-D(KLAKLAK)2] (H-CKGGRAKDCGG[dK][dL][dA][dK][dL][dA][dK][dK][dL][dA][dK][dL][dA][dK]-OH; disulfide 1-9; N-terminus and C-terminus assumed), in the data set on HES-3 cells, the “killing efficiency on hESC, D-form vs L-form” value is “comparable”. For the same compound, the “toxic effect on hESC” value in the data set with HES-3 cells (concentrations less than 100 μM) is reported as “minimal”. The “time of incubation to cell death via apoptosis” value with HES-3 cells (hESC) and with ESIMR90 (IPSCs) was at most 48 h throughout. The relative viability in the data set on HES-3 cells (human, 24 h) amounted to 84.7%; in the data set on HES-3 cells (human, 72 h), 52.2%; in the data set with HES-3 cells (human, 120 h) it was 21.7%; with ESIMR90 (human, 72 h), 33.4%. Also, the viability is listed as below 10% in the data set with HES-3 cells (human, 120 hr, 150 µM) and below 10% in the data set with HES-3 cells (human, 120 hr, 200 µM). Besides, the “apoptotic killing effect, dose dependence” value in the data set on HES-3 cells (titrated over 20 μM to 200 μM) is “concentration-dependent”. In addition, in the data set on HES-3 (setting [5]), the “initiation of death phase” value is 70 h. This compound registered a td in the data set on HES-3 (setting [5]) of 61.3 h. Also, the specific growth rate in the data set on HES-3 (100 μM of peptide, clump cultures, over 7 days) is 0.0113 h⁻¹. Moreover, the “growth compared to the control” value in the data set on HES-3 (peptide supplemented to TrypLE passaged cultures) was “minimal growth”. For the same compound, the “population exhibiting elevated caspase-3 activity” value in the data set on ESIMR90 cells (flow cytometry) is reported as 66.3%; in the data set with hESC [2] (flow cytometry) it was 71.1%. The “caspase-3 substrate and Annexin V staining” value is “exhibited caspase-3 activity and phosphatidylserine (PS) externalization” in the data set on ESIMR90 cells (fluorescence microscopy); “exhibited caspase-3 activity and phosphatidylserine (PS) externalization” with hESC [2] (fluorescence microscopy). In addition, in the data set with hESC [1], the “DNA fragmentation compared to the control” value is “significant increase in DNA fragmentation”. Also, in the data set with IMR-90 cells (100 μM of peptide), the “growth rate μ” value turned out to be 0.0167 h⁻¹. Moreover, in the data set on IMR-90 cells (IMR-90 cells, which do not express PHB on membrane), the cell killing effect result was “minimal cell killing effect”.
As to `Cc1c[nH]c(/C=C2\C(=O)Nc3ccccc32)c1CCC(=O)O` [SU5402], the “surface expression of PHB” value in [3] is reported as “down-regulated surface expression of PHB”. The ERK phosphorylation entry in data set [4] is on record as “suppression of ERK phosphorylation”.

The viability is a per cent measure of how many cells are alive, often set against a control. A high value points to less harm to the cells.
